This is an account of results in PMC6087734, “Loss of S100A1 expression leads to Ca^2+ release potentiation in mutant mice with disrupted CaM and S100A1 binding to CaMBD2 of RyR1” (Physiological Reports, 2018).

Entries after “also recorded” stand apart in the source; their conditions may differ. Residues, ends and D or L forms follow the SMILES beside them.

For assay [1], the system named is CaM. To be noted: ref Lau et al. 2014, cited from earlier work; for CaM binding, in words: isothermal calorimetry, rabbit RyR1 peptides; for affinity sequence of CaM for the CaMBDs, in words: ITC data. An excerpt: There is substantial evidence that CaM and S100A1 may bind to multiple sites within the RyR1. […] Given the affinity of S100A1 for the CaMBDs, it is likely that the observed RyR1 re ...
(Isothermal titration calorimetry measures the heat released or taken up as one component is titrated into another.)

Assay [2] concerns the target T1, S100A1 (recombinant human 15N-labeled, Ca2+-loaded) (Homo sapiens, UniProt P23297).
T1 construct: made in house
T1 sequence (P23297 1-94): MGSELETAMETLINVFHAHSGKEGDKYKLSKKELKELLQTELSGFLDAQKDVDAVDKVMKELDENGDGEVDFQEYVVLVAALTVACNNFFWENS
As to the kind of experiment: ITC of S100A1 association with RyR1 CaMBD peptides. It counts as binding. The settings on record: for S100A1 binding, in words: 10 mmol/L Ca2+; for N (sites) / Kd / ΔG / ΔH: 37°C, two-site fit, mean ± SD, n = 3; for difference in affinity between the tight and weak peptide-binding site: ratio of KD at the two sites on S100A1 dimer. Here is the method:
All peptides were synthesized using […] peptide synthesis and their purity was determined to be >95% by high pressure liquid chromatography and mass spectrometry (Biosynthesis Inc., Lewisville, TX or GenScript, Piscataway, NJ). Three peptides derived from human RyR1 sequence were synthesized: CaMBD2, residues 3614‐3640, […]; CaMBD1, residues 1975‐1999, […]; and CaMBD3, residues 4303‐4326, […]. As they are internal peptides the C‐terminus was […] and N‐terminus was acetylated to neutralize the charged ends. The peptides stock were made in D6‐DMSO and their concentration were determined by quantitative amino acid analysis (Biosynthesis Inc., Lewisville, TX) and/or determined using the extinction coefficient for the methyl ester of N‐acetyl tryptophan, ε280 = 5600 cm^−1M^−1.
Expression and purification (>95% by SDS‐PAGE) of recombinant human ^15N‐labeled S100A1 was performed as previous described (Melville et al. 2017b). The concentrations of S100A1 stock solutions were determined using the Bio‐Rad Protein Assay (Bio‐Rad Inc., Hercules, CA) using a known concentration of BSA as the standard. Concentrations are given in S100A1 monomer concentration except where indicated.
Heat changes during the titration of each CaMBD peptide into Ca^2+‐S100A1 were measured using a VP‐ITC titration microcalorimeter (MicroCal, Inc., Northhampton, MA) as done previously (Wilder et al. 2003). All solutions were degassed under vacuum and equilibrated at 37°C prior to titration. For each titration the sample cell (1.4 mL) contained 10 mmol/L TES, pH 7.2, 15 mmol/L NaCl, and 10 mmol/L CaCl2, 0.5 mmol/L TCEP, <5% D6‐DMSO (from peptide stocks or equivalent D6‐DMSO added to controls), and 0.04 mmol/L CaMBD peptide, while the reference cell contained water. Upon equilibration, 0.20–0.35 mmol/L S100A1 (dimer concentration) prepared in the same buffer without peptide but equivalent D6‐DMSO was injected using the default injection rate with a time interval between each injection to allow the sample to return to baseline. The resulting titration curves were corrected for protein‐free buffer control.
Images were collected and evaluated using the same settings and enhancing parameters so that all images could be directly compared. Line‐scan images were analyzed using LSM examiner (Carl Zeiss, Jena, DE). Calculation of AP‐induced Ca^2+ signals were conducted using Origin Pro 8 (OriginLab Corporation, Northampton, MA, USA) and SPSS for Windows ver. 24.0 (SPSS Inc., Chicago, IL). Summary data were reported as mean ± SD. Normal distribution of data was assessed using the Kolmogorov–Smirnov test. Unpaired two sample Student's t‐test was used to test for differences between the means of the indo 1‐resting values and peak AP‐induced Ca^2+ transients from two different samples. ITC results were background buffer subtracted and analyzed using the Origin for ITC software (MicroCal, Northampton, MA) and fit using two‐site fitting model (Freire et al. 1990). Differences were considered significant when P < 0.05.

Assay [3] concerns the target RyR1 CaMBD1 peptide (site 1) (Homo sapiens). As to the kind of experiment: ITC.
Assay [4] deals with RyR1 CaMBD1 peptide (site 2) (Homo sapiens). As to the kind of experiment: ITC.
Assay [5] has as its target RyR1 CaMBD2 peptide (site 1) (Homo sapiens). As to the kind of experiment: ITC.
The target of assay [6] is RyR1 CaMBD2 peptide (site 2) (Homo sapiens). As to the kind of experiment: ITC.
Assay [7] concerns the target RyR1 CaMBD3 peptide (site 1) (Homo sapiens). As to the kind of experiment: ITC.
The target of assay [8] is RyR1 CaMBD3 peptide (site 2) (Homo sapiens). Briefly: ITC.
The mark [9] stands for this setting: peptide-binding site 1, ITC VP-ITC, 10 mmol/L TES pH 7.2, 15 mmol/L NaCl, 10 mmol/L CaCl2, 0.5 mmol/L TCEP, <5% D6-DMSO, 0.04 mmol/L peptide in cell, 0.20-0.35 mmol/L S100A1 (dimer) injected.
The mark [10] stands for this setting: peptide-binding site 1, ITC, pH 7.2, 10 mmol/L CaCl2.
[11] abbreviates: peptide-binding site 2, ITC, pH 7.2, 10 mmol/L CaCl2.

As to “rCaMBD3: peptide from rabbit RyR1, residues 4295‐4325, Lau et al. 2014 (RLAAAAARALRGLSYRSLRRRVRRLRRLTAR; UniProt P11716 4295-4325, looked up, fragment) [reference compound]”, the “CaM binding, in words” value in assay [1] was “CaM can bind”.

With `CC(=O)N[C@@H](CCCNC(=N)N)C(=O)N[C@@H](C)C(=O)N[C@@H](CC(C)C)C(=O)N[C@@H](CCCNC(=N)N)C(=O)NCC(=O)N[C@@H](CC(C)C)C(=O)N[C@@H](CO)C(=O)N[C@@H](Cc1ccc(O)cc1)C(=O)N[C@@H](CCCNC(=N)N)C(=O)N[C@@H](CO)C(=O)N[C@@H](CC(C)C)C(=O)N[C@@H](CCCNC(=N)N)C(=O)N[C@@H](CCCNC(=N)N)C(=O)N[C@@H](CCCNC(=N)N)C(=O)N[C@H](C(=O)N[C@@H](CCCNC(=N)N)C(=O)N[C@@H](CCCNC(=N)N)C(=O)N[C@@H](CC(C)C)C(=O)N[C@@H](CCCNC(=N)N)C(=O)N[C@@H](CCCNC(=N)N)C(=O)N[C@@H](CC(C)C)C(=O)N[C@H](C(=O)N[C@@H](C)C(=O)N[C@@H](CCCNC(=N)N)C(N)=O)[C@@H](C)O)C(C)C` [CaMBD3] (Ac-RALRGLSYRSLRRRVRRLRRLTAR-NH2), in assay [2] (ITC), the “S100A1 binding, in words” value is “binds with different affinities; also recorded: tightest S100A1 binding”. Also, the “N (sites)” value in assay [2] (setting [9]) was determined as 1.79 ± 0.08. Besides, in assay [2] (setting [10]), the Kd worked out at 0.0089 ± 0.011 µM, the ΔG is -11.9 ± 1.2 kcal/mol and the ΔH was -3.6 ± 0.7 kcal/mol. In assay [2] (setting [11]), the Kd was 6.7 µM, the “N (sites)” value was determined as 1.27 ± 0.07, the ΔG is -7.4 ± 0.2 kcal/mol and the ΔH is -6.1 ± 0.9 kcal/mol. Moreover, the “difference in affinity between the tight and weak peptide-binding site” value (from here on “difference”) in assay [2] was 755 fold. The “affinity sequence of CaM for the CaMBDs, in words” value (shortened to “affinity sequence of CaM”) in assay [1] is “CaMBD2 > CaMBD3 > CaMBD1”.

For “rCaMBD1: peptide from rabbit RyR1, residues 3614‐3640 (as printed), Lau et al. 2014 (KSKKAVWHKLLSKQRRRAVVACFRMTP; UniProt P11716 3614-3640, looked up, fragment) [reference compound]”, in assay [1], the “CaM binding, in words” value is reported as “CaM can bind”.

With “rCaMBD2: peptide from rabbit RyR1, residues 1975‐1999 (as printed), Lau et al. 2014 (SRYALLMRAFTMSAAETARRTREFR; UniProt P11716 1975-1999, looked up, fragment) [reference compound]”, in assay [1], the “CaM binding, in words” value is recorded as “CaM can bind”.

`CC[C@H](C)[C@H](NC(=O)[C@H](CC(C)C)NC(=O)[C@H](CC(C)C)NC(=O)CNC(=O)[C@H](Cc1ccc(O)cc1)NC(=O)[C@H](CCCNC(=N)N)NC(=O)[C@H](CO)NC(C)=O)C(=O)N[C@@H](CCCCN)C(=O)N[C@@H](C)C(=O)N[C@@H](Cc1ccccc1)C(=O)N[C@@H](CO)C(=O)N[C@@H](CCSC)C(=O)N[C@H](C(=O)N[C@@H](C)C(=O)N[C@@H](C)C(=O)N[C@@H](CCC(=O)O)C(=O)N[C@H](C(=O)N[C@@H](C)C(=O)N[C@@H](CCCNC(=N)N)C(=O)N[C@@H](CCCNC(=N)N)C(=O)N[C@H](C(=O)N[C@@H](CCCNC(=N)N)C(=O)N[C@@H](CCC(=O)O)C(=O)N[C@@H](Cc1ccccc1)C(=O)N[C@@H](CCCNC(=N)N)C(N)=O)[C@@H](C)O)[C@@H](C)O)[C@@H](C)O` [CaMBD1] (Ac-SRYGLLIKAFSMTAAETARRTREFR-NH2): the “S100A1 binding, in words” value in assay [2] (ITC) was “binds with different affinities; also recorded: weakest affinity”. In assay [2] (setting [9]), the “N (sites)” value was 1.14 ± 0.10. Also, in assay [2] (setting [10]), the Kd is 1.3 ± 0.284 µM, the ΔG is -8.4 ± 0.1 kcal/mol and the ΔH was -4.5 ± 0.7 kcal/mol. Further, in assay [2] (setting [11]), the dissociation constant Kd was found to be 21 µM, the “N (sites)” value was 0.75 ± 0.07, the ΔG is -6.7 ± 0.2 kcal/mol and the ΔH was -10.8 ± 0.4 kcal/mol. Further, the “difference” value in assay [2] is 16 fold. Besides, the “affinity sequence of CaM” value in assay [1] is reported as “CaMBD2 > CaMBD3 > CaMBD1”.

Take `CSCC[C@H](NC(=O)[C@H](CCCNC(=N)N)NC(=O)[C@H](Cc1ccccc1)NC(=O)[C@H](CS)NC(=O)[C@H](C)NC(=O)[C@@H](NC(=O)[C@@H](NC(=O)[C@H](C)NC(=O)[C@H](CCCNC(=N)N)NC(=O)[C@H](CCCNC(=N)N)NC(=O)[C@H](CCCNC(=N)N)NC(=O)[C@H](CCC(N)=O)NC(=O)[C@H](CCCCN)NC(=O)[C@H](CO)NC(=O)[C@H](CC(C)C)NC(=O)[C@H](CC(C)C)NC(=O)[C@H](CCCCN)NC(=O)[C@H](Cc1c[nH]cn1)NC(=O)[C@H](Cc1c[nH]c2ccccc12)NC(=O)[C@@H](NC(=O)[C@H](C)NC(=O)[C@H](CCCCN)NC(=O)[C@H](CCCCN)NC(=O)[C@H](CO)NC(=O)[C@H](CCCCN)NC(C)=O)C(C)C)C(C)C)C(C)C)C(=O)N[C@H](C(=O)N1CCC[C@H]1C(N)=O)[C@@H](C)O` [CaMBD2] (Ac-KSKKAVWHKLLSKQRRRAVVACFRMTP-NH2): the “N (sites)” value in assay [2] (setting [9]) is reported as 0.78 ± 0.09. In assay [2] (setting [10]), the dissociation constant Kd worked out at 0.146 ± 0.0239 µM, the ΔG is -9.7 ± 0.1 kcal/mol and the ΔH was -11.4 ± 0.2 kcal/mol. In assay [2] (setting [11]), the Kd is 17 µM, the “N (sites)” value came to 0.51 ± 0.15, the ΔG was -6.8 ± 0.1 kcal/mol and the ΔH is -10.3 ± 3.0 kcal/mol. Further, the “difference” value in assay [2] is recorded as 114 fold. Moreover, in assay [1], the “affinity sequence of CaM” value is recorded as “CaMBD2 > CaMBD3 > CaMBD1”.

B1: S100A1, P23297 (protein)
chain: MGSELETAMETLINVFHAHSGKEGDKYKLSKKELKELLQTELSGFLDAQKDVDAVDKVMKELDENGDGEVDFQEYVVLVAALTVACNNFFWENS
Regarding B1, the Kd in assay [3] turned out to be 1.3 µM; in assay [4], 21 µM; in assay [5], 0.146 µM; in assay [6], 17 µM; in assay [7] it was 0.0089 µM; in assay [8] it was 6.7 µM.

As a reminder, the Kd is a measure of binding affinity in units of concentration.
